Target: T1, 85/88 kDa calcium-independent phospholipase A2 (Homo sapiens) (UniProt O60733)
T1 sequence (whole entry): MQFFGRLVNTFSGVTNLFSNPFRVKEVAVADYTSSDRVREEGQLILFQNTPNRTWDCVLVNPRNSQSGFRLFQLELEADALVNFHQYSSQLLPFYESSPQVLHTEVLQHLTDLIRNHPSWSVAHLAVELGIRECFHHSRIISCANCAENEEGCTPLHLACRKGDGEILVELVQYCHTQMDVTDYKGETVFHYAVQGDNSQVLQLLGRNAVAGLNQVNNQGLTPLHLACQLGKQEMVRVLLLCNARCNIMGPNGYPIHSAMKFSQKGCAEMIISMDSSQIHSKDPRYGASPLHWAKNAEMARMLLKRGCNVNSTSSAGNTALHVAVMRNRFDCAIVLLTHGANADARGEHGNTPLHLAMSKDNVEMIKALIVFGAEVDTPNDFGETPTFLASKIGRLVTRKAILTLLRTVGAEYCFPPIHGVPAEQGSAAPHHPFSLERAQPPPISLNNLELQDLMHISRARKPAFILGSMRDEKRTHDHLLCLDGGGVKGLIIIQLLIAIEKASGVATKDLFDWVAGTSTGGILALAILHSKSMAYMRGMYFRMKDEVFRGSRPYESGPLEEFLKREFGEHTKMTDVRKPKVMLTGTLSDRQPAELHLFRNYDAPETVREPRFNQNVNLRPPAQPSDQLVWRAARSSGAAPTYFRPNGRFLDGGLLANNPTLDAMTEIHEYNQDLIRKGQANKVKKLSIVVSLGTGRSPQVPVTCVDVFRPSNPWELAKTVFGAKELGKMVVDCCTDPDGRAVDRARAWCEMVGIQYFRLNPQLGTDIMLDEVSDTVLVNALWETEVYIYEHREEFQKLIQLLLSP
Experiment: Inhibition of N-terminal 6xHis-tag human group VIA calcium-independent PLA2 expressed in fall armyworm sf9 cells using PAPC/arachidonyl-1-14C PAPC as substrate by mixed micelle modified Dole assay

SMILES	XI50 (mole fraction)
CCCCSCC(=O)C(F)(F)F	0.07
O=C(CSc1cccc(Cl)c1)C(F)(F)F	0.011
CCCCCCCCCCCSCC(=O)C(F)(F)F	0.0007
CCCCCCCCCCCCSCC(=O)C(F)(F)F	0.0043
CCCCCCCCCCSCC(=O)C(F)(F)F	0.00041
COc1ccc(SCC(=O)C(F)(F)F)cc1	0.011
O=C(CSCCc1ccccc1)C(F)(F)F	0.00059
CCCCCCSCC(=O)C(F)(F)F	0.00052
CCCCCCOCC(=O)C(F)(F)F	0.006
O=C(CSc1ccc(Cl)cc1)C(F)(F)F	0.011
Cc1ccc(SCC(=O)C(F)(F)F)cc1	0.009
O=C(CSc1ccc(Br)cc1)C(F)(F)F	0.0071
O=C(CSc1c(Cl)cccc1Cl)C(F)(F)F	0.0049

Target: T1, 85/88 kDa calcium-independent phospholipase A2 (Homo sapiens)
Experiment: Inhibition of N-terminal 6xHis-tag human group VIA calcium-independent PLA2 expressed in fall armyworm sf9 cells at 0.091 mol fraction using PAPC/arachidonyl-1-14C PAPC as substrate by mixed micelle modified Dole assay

SMILES	inhibition	pXI50
CCCCSCC(=O)C(F)(F)F	91%	1.2
O=C(CSc1cccc(Cl)c1)C(F)(F)F	98%	2
CCCCCCCCCCCSCC(=O)C(F)(F)F	98%	3.2
CCCCCCCCCCCCSCC(=O)C(F)(F)F	97%	2.4
CCCCCCCCCCSCC(=O)C(F)(F)F	99%	3.4
COc1ccc(SCC(=O)C(F)(F)F)cc1	93%	2
O=C(CSCCc1ccccc1)C(F)(F)F	100%	3.2
CCCCCCSCC(=O)C(F)(F)F	99%	3.3
CCCCCCOCC(=O)C(F)(F)F	99%	2.2
O=C(CSc1ccc(Cl)cc1)C(F)(F)F	95%	2
Cc1ccc(SCC(=O)C(F)(F)F)cc1	95%	2.1
O=C(CSc1ccc(Br)cc1)C(F)(F)F	97%	2.2
O=C(CSc1c(Cl)cccc1Cl)C(F)(F)F	99%	2.3

Target: T2, Cytosolic phospholipase A2 (Homo sapiens) (UniProt P47712)
T2 sequence (whole entry): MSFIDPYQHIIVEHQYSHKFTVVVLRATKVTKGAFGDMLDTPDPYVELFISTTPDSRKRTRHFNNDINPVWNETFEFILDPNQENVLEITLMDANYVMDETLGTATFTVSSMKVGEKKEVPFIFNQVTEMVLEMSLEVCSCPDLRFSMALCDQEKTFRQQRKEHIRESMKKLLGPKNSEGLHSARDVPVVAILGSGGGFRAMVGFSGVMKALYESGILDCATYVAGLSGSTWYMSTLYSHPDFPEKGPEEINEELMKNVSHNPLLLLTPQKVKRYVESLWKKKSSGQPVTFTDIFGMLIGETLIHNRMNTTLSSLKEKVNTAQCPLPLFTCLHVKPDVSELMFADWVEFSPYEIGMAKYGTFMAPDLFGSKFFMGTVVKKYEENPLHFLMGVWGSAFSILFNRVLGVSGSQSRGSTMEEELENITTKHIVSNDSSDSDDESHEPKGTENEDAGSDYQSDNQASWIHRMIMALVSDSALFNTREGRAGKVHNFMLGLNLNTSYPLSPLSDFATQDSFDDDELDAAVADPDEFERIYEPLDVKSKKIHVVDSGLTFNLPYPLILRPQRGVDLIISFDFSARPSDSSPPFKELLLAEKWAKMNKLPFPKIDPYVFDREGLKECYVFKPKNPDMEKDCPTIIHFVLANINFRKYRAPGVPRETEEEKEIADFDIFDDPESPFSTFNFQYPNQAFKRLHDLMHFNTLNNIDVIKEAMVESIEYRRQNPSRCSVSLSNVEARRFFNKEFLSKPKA
Experiment: Inhibition of C-terminal 6xHis-tagged human group IVA cytosolic PLA2 expressed in fall armyworm sf9 cells at 0.091 mol fraction using PAPC/arachidonyl-1-14C PAPC as substrate by mixed micelle modified Dole assay

SMILES	inhibition
CCCCSCC(=O)C(F)(F)F	46%
O=C(CSc1cccc(Cl)c1)C(F)(F)F	91%
CCCCCCCCCCCSCC(=O)C(F)(F)F	98%
CCCCCCCCCCCCSCC(=O)C(F)(F)F	83%
CCCCCCCCCCSCC(=O)C(F)(F)F	100%
COc1ccc(SCC(=O)C(F)(F)F)cc1	70%
O=C(CSCCc1ccccc1)C(F)(F)F	92%
CCCCCCSCC(=O)C(F)(F)F	77%
CCCCCCOCC(=O)C(F)(F)F	76%
O=C(CSc1ccc(Cl)cc1)C(F)(F)F	82%
Cc1ccc(SCC(=O)C(F)(F)F)cc1	61%
O=C(CSc1ccc(Br)cc1)C(F)(F)F	82%
O=C(CSc1c(Cl)cccc1Cl)C(F)(F)F	91%

Target: T2, Cytosolic phospholipase A2 (Homo sapiens)
Experiment: Inhibition of C-terminal 6xHis-tagged human group IVA cytosolic PLA2 expressed in fall armyworm sf9 cells using PAPC/arachidonyl-1-14C PAPC as substrate by mixed micelle modified Dole assay

SMILES	XI50 (mole fraction)
CCCCCCCCCCCSCC(=O)C(F)(F)F	0.014
CCCCCCCCCCSCC(=O)C(F)(F)F	0.008

Species: Homo sapiens
Experiment: Inhibition of His-tagged human group V human secretory PLA2 expressed in Escherichia coli BL21 cells at 0.091 mol fraction using PAPC/arachidonyl-1-14C PAPC as substrate by mixed micelle modified Dole assay

SMILES	inhibition
CCCCSCC(=O)C(F)(F)F	14%
O=C(CSc1cccc(Cl)c1)C(F)(F)F	46%
CCCCCCCCCCCSCC(=O)C(F)(F)F	73%
CCCCCCCCCCCCSCC(=O)C(F)(F)F	87%
CCCCCCCCCCSCC(=O)C(F)(F)F	78%
COc1ccc(SCC(=O)C(F)(F)F)cc1	16%
O=C(CSCCc1ccccc1)C(F)(F)F	61%
CCCCCCSCC(=O)C(F)(F)F	33%
CCCCCCOCC(=O)C(F)(F)F	35%
O=C(CSc1ccc(Cl)cc1)C(F)(F)F	23%
Cc1ccc(SCC(=O)C(F)(F)F)cc1	18%
O=C(CSc1ccc(Br)cc1)C(F)(F)F	35%
O=C(CSc1c(Cl)cccc1Cl)C(F)(F)F	43%
